Values after ≈ are worked out from the molar mass of the structure shown. Like-named read-outs stand apart in the source and are kept apart here.
Legend:
[1] = system: KP1084 (KPC-3, SHV-11, TEM-1); experiment: Carbapenem potentiation against clinical isolate (MIC); assay type: cell-based, Klebsiella pneumoniae; details: for Carbapenem MIC Alone: antibiotic alone
EA1019 (SHV-5, VIM-1) = experiment: as above; assay type: cell-based, Enterobacter aerogenes
[2] = system: KP1004 (KPC-2, TEM-1, SHV-11); experiment: as above; assay type: cell-based, Klebsiella pneumoniae; details: for Carbapenem MIC Alone: antibiotic alone
[3] = system: KP1081 (NDM-1, TEM-1, SHV-11, CMY-6, CTX-M-15); experiment: as above; assay type: cell-based; details: for Carbapenem MIC Alone: antibiotic alone
KP1059 (VIM-1, SHV-11) = experiment: Biapenem potentiation against clinical isolate (MIC); assay type: cell-based; details: Klebsiella pneumoniae, biapenem alone
Text: The results are present in Table 9.

[4] = system: EC1064 (NDM-1, CMY-6, CTX-M-15); experiment: Carbapenem potentiation against clinical isolate (MIC); assay type: cell-based, Escherichia coli; details: for Carbapenem MIC Alone: antibiotic alone
[5] = system: KP1087 (KPC-2, CTX-M-15, SHV-11, TEM-1); experiment: as above; assay type: cell-based; details: for Carbapenem MIC Alone: antibiotic alone
KP1054 (VIM-1, SHV-11) = experiment: as above; assay type: cell-based, Klebsiella pneumoniae; details: for Carbapenem MIC Alone: antibiotic alone
[6] = system: KP1074 (KPC-3, SHV-11, TEM); experiment: as above; assay type: cell-based, Klebsiella pneumoniae; details: for Carbapenem MIC Alone: antibiotic alone
KP1014 (VIM-1) = experiment: as above; assay type: cell-based, Klebsiella pneumoniae; details: for Carbapenem MIC Alone: antibiotic alone
[7] = system: KP1086 (TEM, SHV, CTX-M-15, OXA-48); experiment: as above; assay type: cell-based, Klebsiella pneumoniae; details: for Carbapenem MIC Alone: antibiotic alone
[8] = system: KP1064 (KPC-2, SHV-11, TEM-1); experiment: as above; assay type: cell-based, Klebsiella pneumoniae; details: for Carbapenem MIC Alone: antibiotic alone
AB1144 (NDM-1) = experiment: as above; assay type: cell-based, Acinetobacter baumannii
ECM6711 (pUCP24-VIM-1) = assay type: cell-based, E. coli
ECM6703 (pUCP24-NDM-1) = assay type: cell-based, E. coli
ECM6704 (pUCP24) = experiment: microbe, parasite or virus in culture; assay type: cell-based, E. coli; details: Escherichia coli, read-out: Imipenem MIC Alone
[9] = system: strains of Enterobacteriaceae overexpressing various carbapenemases (class A and B); experiment: organism not typed; assay type: cell-based
Text: Several strains simultaneously expressing both class A and class B carbapenemases, which were constructed using conjugation, were also included in the panel.

[10] = Klebsiella pneumoniae, biapenem alone

C[C@@H](O)[C@H]1C(=O)N2C(C(=O)[O-])=C(SC3Cn4cnc[n+]4C3)[C@H](C)[C@H]12 (stereo partly drawn) [Biapenem]
MIC [1, 10]: > 10 µg/mL
Carbapenem MIC Alone [1]: Z (MIC of greater than 10 μg/mL)
Carbapenem MIC Alone (EA1019 (SHV-5, VIM-1); EA1019, antibiotic alone): Z (MIC of greater than 10 μg/mL)
MIC (EA1019 (SHV-5, VIM-1); Klebsiella aerogenes, EA1019, biapenem alone): > 10 µg/mL
MIC [2, 10]: > 10 µg/mL
Carbapenem MIC Alone [2]: Y (MIC of 1 μg/mL to 10 μg/mL)
MIC [3, 10]: > 10 µg/mL
Carbapenem MIC Alone [3]: Z (MIC of greater than 10 μg/mL)
MIC (KP1059 (VIM-1, SHV-11)): > 10 µg/mL
MIC ([4]; Escherichia coli, biapenem alone): > 10 µg/mL
Carbapenem MIC Alone [4]: Z (MIC of greater than 10 μg/mL)
MIC [5, 10]: > 10 µg/mL
Carbapenem MIC Alone [5]: Z (MIC of greater than 10 μg/mL)
MIC (KP1054 (VIM-1, SHV-11); [10]): > 10 µg/mL
Carbapenem MIC Alone (KP1054 (VIM-1, SHV-11)): Z (MIC of greater than 10 μg/mL)
MIC [6, 10]: > 10 µg/mL
Carbapenem MIC Alone [6]: Z (MIC of greater than 10 μg/mL)
MIC (KP1014 (VIM-1); [10]): > 10 µg/mL
Carbapenem MIC Alone (KP1014 (VIM-1)): Z (MIC of greater than 10 μg/mL)
MIC [7, 10]: > 10 µg/mL
Carbapenem MIC Alone [7]: Z (MIC of greater than 10 μg/mL)
MIC [8, 10]: > 10 µg/mL
Carbapenem MIC Alone [8]: Z (MIC of greater than 10 μg/mL)
Carbapenem MIC Alone (AB1144 (NDM-1); AB1144, antibiotic alone): Y (MIC of 1 μg/mL to 10 μg/mL)
MIC (AB1144 (NDM-1); Acinetobacter baumannii, AB1144, biapenem alone): > 10 µg/mL

C[C@@H](O)[C@H]1C(=O)N2C(C(=O)O)=C(SCCN=CN)C[C@H]12 [Imipenem]
Carbapenem MIC Alone [1]: Z (MIC of greater than 10 μg/mL)
Imipenem MIC Alone (ECM6711 (pUCP24-VIM-1)): Y (key: X: MIC of less than 1.0 μg/mL; Y: MIC of 1.0 μ/mL or above)
Imipenem MIC Alone (ECM6703 (pUCP24-NDM-1)): Y (key: X: MIC of less than 1.0 μg/mL; Y: MIC of 1.0 μ/mL or above)
Carbapenem MIC Alone (EA1019 (SHV-5, VIM-1)): Z (key: X: MIC of less than 1 μg/mL; Y: MIC of 1 μg/mL to 10 μg/mL; Z: MIC of greater than 10 μg/mL)
Carbapenem MIC Alone [2]: Z (MIC of greater than 10 μg/mL)
Carbapenem MIC Alone [3]: Z (MIC of greater than 10 μg/mL)
Carbapenem MIC Alone [4]: Z (MIC of greater than 10 μg/mL)
Carbapenem MIC Alone [5]: Y (MIC of 1 μg/mL to 10 μg/mL)
Carbapenem MIC Alone (KP1054 (VIM-1, SHV-11)): Y (MIC of 1 μg/mL to 10 μg/mL)
Carbapenem MIC Alone [6]: Z (MIC of greater than 10 μg/mL)
Carbapenem MIC Alone (KP1014 (VIM-1)): Z (MIC of greater than 10 μg/mL)
MIC (ECM6704 (pUCP24)): < 1 µg/mL
MIC [9]: 1 to 10 µg/mL (≈ 3.34 to 33.4 µM)
MIC ([9]; Klebsiella aerogenes): > 10 µg/mL
Carbapenem MIC Alone [7]: Z (MIC of greater than 10 μg/mL)
Carbapenem MIC Alone [8]: Z (MIC of greater than 10 μg/mL)
Carbapenem MIC Alone (AB1144 (NDM-1)): Z (key: X: MIC of less than 1 μg/mL; Y: MIC of 1 μg/mL to 10 μg/mL; Z: MIC of greater than 10 μg/mL)
